# Data published in patent EP4663632A1, “COMPOUNDS USEFUL FOR THE MODULATION OF THE ACTIVITY OF STING” (Sulis Therapeutics ApS, priority 2024, dated 2025).
# Entries after “also recorded” stand apart in the source; their conditions may differ.
# Assays:
# Assay type in all cases: cell-based
# STING [1] = molecular target: T1, STING (Homo sapiens, UniProt Q86WV6); experiment: Western Blot analysis of STING phosphorylation in human fibroblast cells (STING agonism); design: host or cells: HFF-1 human foreskin fibroblasts; settings: 7.2µM-3.6nM; 24h
# T1 sequence (Q86WV6 whole entry): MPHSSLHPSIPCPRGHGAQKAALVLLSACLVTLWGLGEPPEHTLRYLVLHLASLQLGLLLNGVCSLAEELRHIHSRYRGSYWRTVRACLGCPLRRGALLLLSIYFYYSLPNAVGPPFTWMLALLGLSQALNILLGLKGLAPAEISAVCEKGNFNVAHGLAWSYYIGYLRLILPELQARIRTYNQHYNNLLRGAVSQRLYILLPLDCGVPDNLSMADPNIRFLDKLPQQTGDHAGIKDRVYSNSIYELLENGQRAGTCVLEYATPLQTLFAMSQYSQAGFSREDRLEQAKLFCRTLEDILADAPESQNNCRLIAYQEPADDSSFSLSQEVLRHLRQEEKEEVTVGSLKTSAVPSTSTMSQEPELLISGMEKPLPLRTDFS
# Description: Human fibroblast were treated with a titration of E22, E9, E14 and E16 (7.2µM-3.6nM) for 24h prior to cell lysis and subsequently total STING, pSTING and Vinculin were assessed by western blot using rabbit anti-STING (1:1000), anti-pSTING (1:1000), anti-Vinculin (1:1000) and 2nd anti-rabbit-HRP (1:10.000) or anti-mouse-HRP (1:7500). Proteins were visualized using ImageQuant800. Control cells included untreated cells and cells treated with 300nM diABZI C3.
# STING [2] = molecular target: T1, STING; experiment: Western Blot analysis for STING degradation in H1650 cells; settings: 0.22 µM, 0.67 µM, 2 µM and 6 µM
# Description: (§1) To assess STING degradation in H596 cells (ATCC, HTB-178) cells were seeded at a density of 100.000 cells/well in 24-well Nunclon Delta surface treated culture plate in RPMI-1640 growth medium (supplemented with 10% FBS, 1% Pen-strep). Cells were incubated over-night at 37°C 5% CO2 to allow adhesion. Next day growth medium was renewed and a 5x concentration of test compounds (2.5% DMSO) diluted in growth medium were added to the appropriate well. Final DMSO concentration was 0.5%. Cell culture plates were returned to the incubator for additional 24h. Final test compound concentrations were 0.22 µM, 0.67 µM, 2 µM and 6 µM.
# (§2) For cell lysis, western blotting and data analysis, the methods described above for HFF-1 cells were applied.
# Similar protocols were carried out to assess STING degradation in H1650 cells (Figure 1, top panel) and HaCat cells (Figure 1, bottom panel) using Example compounds 14, 16 and 24, except that the seeding density was 150,000 cells/well and 250,000 cells/well for H1650 cells and HaCat cells, respectively.
# STING [3] = molecular target: T1, STING; experiment: Western Blot analysis for STING degradation in H596 cells; settings: 24h; for STING degradation (Western Blot, Figure 1): H596 cells, 0.22 µM, 0.67 µM, 2 µM and 6 µM
# Description: For cell lysing for Western Blot analysis cell culture plates were brought to ice, supernatant was removed by aspiration and cells washed 2x in ice-cold DPBS. Cells were lysed in 65 µL of RIPA buffer supplemented with cOmplete ULTRA Tablets protease inhibitor cocktail, PIERCE Phosphatase inhibitor mini tablet, Benzonase and 10mM NaF for 20 min on ice. Lysates were collected, cleared by centrifugation (13000xg for 10 min at 4°C). Samples were either analysed directly or stored at -80°C until analysis.
# For Western Blotting, total protein concentration in each lysate was determined using PIERCE Gold BCA Assay kit according to manufactures protocol. 6 µg of total protein was mixed with 2x Laemmli buffer containing DTT, boiled for 5 min at 95°C, cooled on ice and loaded into each well of a 4-20% Criterion TGX gel. Proteins were separated by electrophoresis, by running for 1h at 150V. After separation proteins were blotted onto a PVDF membrane by semi-dry transfer using Trans-Blot turbo system at pre-defined BioRad MIDI protocol; 25V, 1A (fixed) for 30 min. Membranes were blocked for 1h in 5% skim milk in TBS-T20 on a rocker at room temperature followed by washing and exposure to primary antibodies against human STING 1:1000 (Cell Signalling, #13647) or loading controls Vinculin 1:1000 (Cell Signalling, #13901) or beta-Actin 1:10000 (Sigma, A5441) all diluted in 5% BSA in TBS-T20. Membranes were probed over night at 4°C on a rocker. Membranes were washed 3x in TBS-T20 followed by exposure to secondary HRP-conjugated anti-rabbit antibody or HRP-conjugated anti-mouse antibody diluted 1:10000 in 5% skim milk in TBS-T20 as appropriate. Membranes were incubated for 1h at room temperature on a rocker, then washed 3x in TBS-T20.
# For generating DC50 values, the intensity of individual bands was measured using imaged and expression levels were calculated as a ratio of STING intensities vs. Reference protein intensities and normalized to DMSO control. The normalized ratios were plotted on a XY curve in GraphPad Prism where DC50 was estimated using a 4-parameter non-linear regression fitting curve.
# as §1, §2
# STING [4] = molecular target: T1, STING; experiment: Inhibition of STING-agonist-induced IFN-β release in H596 cells (H596 STING inhibition assay); settings: 24h with compound, then 0.3 µM GSK STING agonist, 6h; ELISA
# Description: Cell supernatants were analysed for IFN-β release using DuoSet human IFN-β ELISA (R&D systems, DY-814) following manufactures protocol except using 96-well, half-volume plates from Corning and subsequently use half volume for all steps throughout the protocol. In brief, plates were coated o/n with a 130x dilution of capturing antibody in PBS. Wells were washed 3x with PBS-T20 followed by blocking with 1% BSA diluted in TBS-T20 for 1h. Wells were washed 3x with PBS-T20 and standards (n=2) and samples (n=3) were added to the plate and incubated for 2h at rt. Wells were washed 3x with PBS-T20 and detection antibody diluted 1:60 in 1% BSA in PBS was added to each well and incubated for 2h at rt. Plates were washed 3x with PBS-T20 and Streptavidin-HRP diluted 1:40 in 1% BSA in PBS was added pr well and incubated for 30 min at rt. The wells were washed 4x with PBS-T20 and TMB One Substrate (Promega) was added and incubated for 5-10 min in the dark. When fully developed, 1 mmol/L Sulfuric acid was added to stop the reaction. Signals were measured using BioTek Synergy H1 plate reader at 450nm and 570nm (reference).
# Raw data values were quantified based on the standard curve using blank subtracted Δ450nm-570nm values generated using the Gen5 software connected to the plate reader. Concentrations were plotted into GraphPad Prism to calculate EC50 values using a 4-parameter non-linear regression fitting curve, bottom constrains set for >0.
# To determine cellular effects of test compounds, we assessed inhibition of STING-agonist-induced IFN-β release in H596 cells (ATCC, HTB-178). Cells were seeded at a density of 25.000 cells/well in 96-well Nunclon Delta surface treated culture plate in RPMI-1640 growth medium (supplemented with 10% FBS, 1% Pen-strep). Cells were incubated over-night at 37°C 5% CO2 to allow adhesion. Next morning growth medium was renewed and a 10x concentration, 3-step dilution series of test compounds diluted in growth medium (5% DMSO) were added to the appropriate well. Final DMSO concentration was 0.5%. Cells were further incubated for 24h followed by incubation with a 10x concentration of GSK STING agonist (CAS number: 2138299-34-8), final concentration was 0.3 µM. Cells culture plates were further incubated, and supernatants were harvested after 6h and immediately stored at -20°C until determination of IFN-β release.
# For ELISA and data analysis, the methods described above for HFF-1 cells were applied.
Compound,STING phosphorylation (pSTING) (STING [1]),total STING protein levels (STING [1]),"STING degradation (Western Blot, Figure 1) (STING [2])",DC50 (STING [3]; reference protein beta-actin),"STING degradation (Western Blot, Figure 1) (STING [3])",EC50 (STING [4])
CCn1nc(C)cc1C(=O)N=c1n(C)c2cc(C(N)=O)ccc2n1CCC(CCn1c(=NC(=O)c2cc(C)nn2CC)n(C)c2cc(C(N)=O)ccc21)OCC(=O)NCCOCCOCCOCCOCCC(=O)NCCOCCOCCOCCOCC(=O)N[C@H](C(=O)N1C[C@H](O)C[C@H]1C(=O)NCc1ccc(-c2scnc2C)cc1)C(C)(C)C (stereo partly shown) [Example 14],no STING phosphorylation was observed,total STING protein levels were observed to decrease,inducing visible degradation in H1650 and H596 at the higher concentrations tested,1 to 5 µM,inducing visible degradation in H1650 and H596 at the higher concentrations tested,
CCn1nc(C)cc1C(=O)N=c1n(C)c2cc(C(N)=O)ccc2n1CCC(CCn1c(=NC(=O)c2cc(C)nn2CC)n(C)c2cc(C(N)=O)ccc21)OCC(=O)NCCOCCOCCOCCOCCC(=O)NCCOCCOCCOCCOCCNc1cccc2c1C(=O)N(C1CCC(=O)NC1=O)C2=O (stereo not shown) [Example 16],no STING phosphorylation was observed,total STING protein levels were observed to decrease,induced STING degradation in all cell lines tested at all concentrations tested,,induced STING degradation in all cell lines tested at all concentrations tested; also recorded: showed a more potent effect of induction of STING degradation than Example compound 14,1 to 5 µM
